In patent publication US20260103581A1, “PROCESS FOR GRANULATING AZO COMPOUNDS AND GRANULES OBTAINED” (ARKEMA FRANCE, priority 2022, published 2026):
Converted amounts (≈) assume the structure as drawn. Blank lines part the entries; values can stand above or below the compound they belong to.

Experiments:
physchem [1] = details: 20 °C, organic solvent or mixture, thermodynamic from solid
Description: (§1) The bottle is shaken for a period of between 1 h and 10 h, for example 6 h. After decantation, said binder is analysed to determine its content of compound of formula (I): this content corresponds to the solubility of the azo compound in the organic binder in g/L. The analysis is carried out by gas chromatography.
(§2) The bottle is shaken for approximately 6 h. After decantation, the organic binder is analysed to determine its AZDN concentration. The analysis is carried out by gas chromatography with an injector temperature set at 220° C. (under these conditions, AZDN is essentially transformed into tetramethylsuccinonitrile in the injector).

[2] = Measurement of the solubility of AZDN in the organic binder; details: 20 °C, organic solvent or mixture, thermodynamic from solid
Description: as §1, §2

[3] = Granule dissolution test in acetone; type: physicochemical; details: 13 g AZDN in 100 ml acetone, room temperature, 100 rpm, visual
Description: A granule dissolution test is carried out at room temperature. A glass Erlenmeyer flask fitted with a magnetic stirring bar is placed on a magnetic stirrer. With the stirring stopped, 13 g of AZDN are introduced into the Erlenmeyer flask. 100 ml of acetone are then introduced quickly and stirring is started (100 rpm). The time taken until, visually, undissolved AZDN crystals are no longer seen is recorded.
Commercial recrystallized AZDN (130-257-438 microns/dv 10-50-90), AZDN granules prepared and dried as obtained above, and the dry powdered AZDN used in Example 1 are compared.

physchem [4] = experiment: physchem
Description: The aqueous phase is decanted and then analysed by gas chromatography in order to determine the binder content in g/L, corresponding to its solubility.
The aqueous phase is decanted and then analysed by gas chromatography to determine the concentration of organic binder.

[5] = water, 20 °C, thermodynamic from solid
[6] = 20 °C, water, thermodynamic from solid

Compound: CC(C)(C#N)N=NC(C)(C)C#N [AZDN, 2,2′-azobis(isobutyronitrile)]
- solubility at 6 h (physchem [1]; diethyl carbonate): 85 mg/mL (≈ 518 mM)
- solubility at 6 h (physchem [1]; n-butyl acetate): 59 mg/mL (≈ 359 mM)
- solubility at 6 h ([2]; isobutyl acetate): 59 mg/mL (≈ 359 mM)
- solubility at 6 h ([2]; meta-xylene): 25 mg/mL (≈ 152 mM)
- solubility at 6 h ([2]; methoxycyclopentane (CPME)): 30.5 mg/mL (≈ 186 mM)
- solubility at 6 h ([2]; methyl isobutyl ketone): 75.5 mg/mL (≈ 460 mM)
- solubility at 6 h ([2]; methyl pentyl ketone): 45 mg/mL (≈ 274 mM)
- solubility at 6 h ([2]; toluene): 60 mg/mL (≈ 365 mM)

Compound: CC(C)(C#N)N=NC(C)(C)C#N [Dry AZDN powder, 2,2′-azobis(isobutyronitrile)]
- Dissolution time [3]: 15 s

Compound: CC(C)(C#N)N=NC(C)(C)C#N [Recrystallized AZDN, 2,2′-azobis(isobutyronitrile), reference compound]
- Dissolution time [3]: 35 s

Compound: CCCCOC(C)=O [n-Butyl acetate]
- solubility at 1 h (physchem [4]; [6]): 7 mg/mL

Second part, the compound after the results:

- solubility at 1 h (physchem [4]; [5]): 7 mg/mL
Compound: CC(=O)OCC(C)C [Isobutyl acetate]

- solubility at 1 h (physchem [4]; [5]): 12.5 mg/mL (≈ 125 mM)
Compound: COC1CCCC1 [Methoxycyclopentane]

- solubility at 1 h (physchem [4]; [5]): 20 mg/mL (≈ 200 mM)
Compound: CC(=O)CC(C)C [Methyl isobutyl ketone]

- solubility at 1 h (physchem [4]; [5]): 5 mg/mL (≈ 43.8 mM)
Compound: CCCCCC(C)=O [Methyl pentyl ketone]

- solubility at 1 h (physchem [4]; [6]): < 0.5 mg/mL
Compound: Cc1cccc(C)c1 [meta-Xylene]
